From patent publication US20160213777A1, “Novel Delivery Compositions and Methods of Using Same” (THOMAS JEFFERSON UNIVERSITY, priority 2013, published 2016)

Legend:
[1] = tested on: A549 cells; test: Cytotoxicity MTT assay of siRNA/nanoparticle formulations and erlotinib; format: cell-based
Protocol: MTT assay was used to determine the effect of siG12S loaded nanoparticles on the proliferation of A549 cells. Chemosensitivity of siG12S-treated cells to erlotinib was also assessed. Cells (1×10^4 per well) were seeded in 96 well plates and incubated at 37° C. in a humidified atmosphere with 5% carbon dioxide for 24 h. The cells were then treated with different formulations of nanoparticles, siG12S and erlotinib. Cells were incubated for 72 h. 10 μL of 12 Mm MTT reagent were then added to each well. This was then incubated at 37° C. for 4 h. The medium was aspirated and 50 μL of sterile DMSO was added to each well and mixed thoroughly with pipet. The cells were then incubated at 37° C. for 10 min. The plate was read at 540 and 650 nm.

[2] = in water; cited from earlier work
[3] = Far-UV circular dichroism, secondary structure estimated with K2D2; format: physicochemical; details: bevacizumab particles reconstituted in acetate buffer; K2D2 estimate
Protocol: CD measurements were performed with Jasco J-810 Spectropolarimeter (Jasco, Md., USA) operating at 20° C. using 0.5 mg/ml of reconstituted solutions of IgG nanoparticles in acetate buffer. CD spectra were obtained in the far UV region (260-190 nm) using a quartz cell of 0.1 path length in order to probe the stability of the secondary structure of the manufactured nanoparticles. A scanning speed of 50 nm/min with a 0.5-second response time was applied followed by five accumulations for each sample. The experiment was repeated in triplicate for each sample. Surfactants dissolved in the acetate buffer at corresponding concentrations were used as blanks. Signals from blanks were subtracted from sample signals. The CD signals were converted to mean residue weight ellipticity and the percentage of the secondary structure retained was estimated using the K2D2 software.
Far UV CD was used to probe for perturbations in the secondary structure of the antibodies following reconstitution in acetate buffer (pH 6). This was done to test whether the secondary structure of the antibodies was still intact, as major perturbation in the secondary structure of proteins may lead to loss or reduction of biological activity.

[4] = Photon correlation spectroscopy (PCS): particle size and zeta potential, bevacizumab nanoparticles; format: physicochemical; details: 5 mg/ml bevacizumab solution
Protocol: Particle size (by intensity) and zeta potential measurements were performed by PCS using Zetasizer Nano ZS (Malvern Instruments, U.K.). The pellets formed after centrifugation at 6,500 rpm for 5 min were thoroughly rinsed and resuspended in deionized water by vortexing. The samples were then sonicated for approximately 5 min. Intensity autocorrelation was measured at a scattering angle (θ) of 173° at 25° C. The Z-average and polydispersity index (PDI) were recorded in triplicate. For zeta potential measurement, the samples were loaded into a universal dip cell (Malvern Instruments, U.K.) before recording the zeta potential in triplicate.
The surfactants seemed to have a concentration-dependent influence on the size and zeta potential of the nanoparticles. […] According to the Manufacturer's Manual, PCS is based on Brownian motion and particles with size above 10 μm tend to quickly sediment. In certain embodiments, under these circumstances, size recorded by the instrument may be due to artifact. […] For surfactant controls, distinct concentrations of the surfactants used in the nanoprecipitation process were dissolved in 0.01 N HCl and titrated with 0.1 N NaOH up to pH 8.4. In the case of nanoparticles, an increase in size was observed as the concentration of the non-ionic surfactant in the precipitation medium increased.

[5] = tested on: A549 cells; test: Cytotoxicity MTT assay of bevacizumab particles; format: cell-based; details: 72 h
Protocol: Cells (1×10^4 cells/well) were seeded in 96 well plates and incubated at 37° C. in a humidified air atmosphere with 5% carbon dioxide for 48 h. […] At the end of incubation (after 72 h), MTT reagent was added to each well and incubated for 3 h.
The medium was aspirated, and 100 μL of DMSO was added. The plate was read at 560 nm. Cells treated with DMSO and relevant surfactants were used as a control.
The control contained the appropriate concentrations of the relevant surfactant. (FIGS. 16-18).

[6] = tested on: A549 cells; test: Uptake/internalization of FITC-labeled bevacizumab particles (flow cytometry, fluorescence microscopy); format: cell-based; details: 100 μg/mL FITC-labeled particles, 60 min
Protocol: (§1) A549 and MRC-5 cells (2×10^4 cells/well) were seeded in 8 well coated glass slides and incubated for 48 h. […] Cells were washed with PBS, fixed with 2% paraformaldehyde, and incubated at room temperature for 20 min. PBS washed cells were then blocked with 5% BSA for 30 min at room temperature. Cells were stained with AlexaFluoro-555 labeled wheat germ agglutinin (WGA) and 4′,6-diamidino-2-phenylindole (DAPI) to visualize plasma membrane and nucleus respectively. Cells were mounted and observed under a Leica DMI 6000B fluorescence microscope (Leica Microsystems, Exton, Pa.).
(§2) About 1 million cells/well were seeded in a 12 well plate and incubated for 48 h. […] The cells were trypsinized and centrifuged at 300 g for 5 min, and the pellet was washed and resuspended in 0.4% trypan blue (TB) solution in PBS to quench the extracellular FITC fluorescence. TB, while quenching the FITC fluorescence of non-internalized particles, causes them to fluoresce red whereas an internalized particle will fluoresce green. […] The samples were then analyzed by flow cytometry (BDFACS caliber). 10,000 cells were measured in each sample.
Mean fluorescence intensity obtained from this experiment was compared to that obtained when the A549 cells were treated with 100 μg/mL FITC-labeled bavacizumab nanoparticles alone. […]

[7] = tested on: MRC-5 cells; test: as above; format: cell-based; details: 100 μg/mL FITC-labeled particles, 60 min
Protocol: as §1
as §2, with “sample. […]” for “sample.”
A549 and MRC-5 cell lines were incubated with FITC-labeled nanoparticles for 15 and 60 minutes. The cells were then washed with D-PBS and extracellular florescence was quenched with trypan blue so that only internalized cells were analyzed. 10,000 cells were measured in each sample.

[8] = Scanning electron microscopy (SEM) particle size estimate; format: physicochemical
Description: The morphology of the manufactured nanoparticles and the unprocessed IgG was observed by scanning electron microscopy using the Zeiss Supra 50VP system (Zeiss, Germany). Powders were mounted onto aluminum stubs using double sided adhesive tape and were made electrically conductive by coating in a thin layer of gold. The coated samples were then examined under microscope operated at an acceleration voltage of 5 kV.

[9] = tested on: serum nuclease; test: siRNA stability in serum (50% FBS, gel electrophoresis); format: in vitro ADME; details: 37° C., up to 48 h
Protocol: IgG-poloxamer-188 nanoparticles (IP-nanoparticles) loaded with siG12S, IgG nanoparticles loaded with siG12S and naked siG12S were incubated in F12K medium containing 50% FBS at 37° C. Aliquots of 5 μl samples were taken at time points up to 48 h. Samples were immediately mixed with 2% SDS, and 5 μl TBE urea sample buffer. The mixture was then heated at 70° C. for 3 minutes in order to deactivate the nuclease enzyme in the serum. The integrity of the siRNA was then analyzed using 15% TBE-ureal gel. siRNA bands were visualized by ethidium bromide staining.
Serum stability was assessed by incubating the naked siRNA and siRNA-loaded nanoparticles in 50% serum and the integrity of the siRNA assessed using gel electrophoresis at different time points. FIG. 41 illustrates the finding that naked siRNA was intact immediately after incubation but degraded after 1 h. In contrast, siRNA in IP nanoparticles was intact after 48 h. siRNA in IgG-nanoparticles was also intact up to 24 h. However, IgG-nanoparticles were not able to protect the siRNA after 24 h.

[10] = tested on: KRAS; test: In vitro gene silencing, western blot analysis; format: cell-based; details: A549 cells, 50 nM siRNA, 96 h
Protocol: A549 cells were transfected 24 h after seeding in a 6-well plate at density of 2×10^5/well. Naked siG12S and control siRNA (Thermal Scientific, Amarillo, Tex.) were transfected with lipofectamine RNAimax transfection reagent (Invitrogen). siRNA-loaded IP and IgG nanoparticles were incubated with the cells at 37° C. in a humidified air environment with 5% carbon dioxide for 96 h. The total concentration of siRNA used in all experiments was 50 nM.
Cells were washed twice with ice-cold PBS and then lysed in M-Per mammalian lysis buffer (Thermo Scientific). The protein concentration of the lysates was determined with the Bradford reagent (Bio Rad), and equal amounts of protein were subjected to SDS-PAGE using a 10% gel. Separated proteins were transferred to a nitrocellulose membrane, which was then exposed to 5% nonfat dried milk in TBS containing 0.1% Tween 20 (0.1% TBST) for 1 h at room temperature and incubated overnight at 4° C. with antibodies against KRAS (Abcam, Cambridge, Mass.) or actin (Sigma). The membranes were then washed with 0.1% TBST before being incubated with horseradish peroxidase-conjugated goat antibodies to rabbit (Santa Cruz Biotechnology). Immune complexes were detected with chemiluminescence reagents (Perkin-Elmer Life Science).

[11] = tested on: IL-6; test: Immunogenicity and inflammatory reaction in murine macrophages (ELISA); format: cell-based; details: RAW 264.7, 24 h
Protocol: (§3) RAW 264.7 murine macrophage cells were seeded in a 96 well plate at a density of 1.5×10^5/well at 37° C. in humidified air with 5% carbon dioxide for 24 h. The cells were then treated with 100 μg/mL of LPS, naked siG12S, siG12S-loaded IP-nanoparticles, siG12S-loaded IgG-nanoparticles and culture medium seperately for 24 h. TNF-α and IL-6 concentrations in supernatant from cultured cells were analyzed using the respective ELISA kit according to the manufacturer's instructions.

[12] = tested on: TNF-α; test: as above; format: cell-based; details: RAW 264.7, 24 h
Protocol: as §3

C#Cc1cccc(Nc2ncnc3cc(OCCOC)c(OCCOC)cc23)c1 [erlotinib]
sensitivity of A549 cells to erlotinib ([1]; alone or with siG12S (50 nM)-loaded IP nanoparticles): resistant

Polyoxyethylene (20) sorbitan monolaurate [Tween 20]
critical micelle concentration (CMC) [2]: 0.0075%

Polyoxyethylene (80) sorbitan monooleate [Tween 80]
critical micelle concentration (CMC) [2]: 0.0017%

bevacizumab [Unprocessed bevacizumab]
% alpha helix [3]: 7.52% | % β-sheet [3]: 32.19% | Zeta potential (mV) [4]: −4.6 ± 0.3 mV | IC50 [5]: ~1800 nM | internalization by A549 cells [6]: not internalized | internalization by MRC-5 cells [7]: not internalized | particle size estimated from SEM [8]: approximately 20 μm

naked siG12S: siRNA against mutated KRAS G12S; sense GUUGGAGCUAGUGGCGUAGdTdT (SEQ ID NO:1), antisense SEQ ID NO:2 (sense GUUGGAGCUAGUGGCGUAGNN; antisense CUACGCCACUAGCUCCAACNN; dTdT overhangs, chemistry not fully specified)
time siRNA remained intact in serum [9]: < 1 h | KRAS expression (knockdown) [10]: major reduction in KRAS expression | growth of A549 cells ([1]; 50 nM siRNA, 72 h): did not inhibit the growth | production of IL-6 [11]: upgraded the production | production of TNF-α [12]: upgraded the production

polyethylene glycol monooleyl ether [Brij 97]
critical micelle concentration (CMC) [2]: 0.029%
